One experiment deals with SCLC strain SHP-77. Nature of the experiment: MTT assay for cell survival, SCLC SHP-77 in vitro. It is filed as cell-based, human. As to conditions: ED50 for killing of SCLC strain SHP-77 in vitro, 4 days, 0 = no detectable activity, read-out: SCLC SHP-77 IC50. (In general: Tetrazolium dyes change colour on reduction, which living cells bring about.)
On to `Cc1nc2ccccc2c(C(=O)NC(Cc2ccc(OCc3c(Cl)cccc3Cl)cc2)C(=O)NC2CC(C)(C)NC(C)(C)C2)c1O` (stereo not shown) [Analog M-1716, Hmqc-OC2Y-Atmp], for which the half-inhibitory concentration (IC50) (in general, the midpoint of a concentration-inhibition curve) came out at 7.2 µM.
As to `CC1(C)CC(NC(=O)C(Cc2ccc(C#N)cc2)NC(=O)c2c(F)c(F)c(F)c(F)c2F)CC(C)(C)N1` (stereo not shown) [Analog M-1490, F5bz-PCNF-Atmp], the IC50 was over 60 µM.
Still for that read-out and setting: the result for `CC1(C)CC(NC(=O)C(Cc2ccc(OCc3c(Cl)cccc3Cl)cc2)NC(=O)c2cccc3ccccc23)CC(C)(C)N1` (stereo not shown) [Analog M-1706, 1Nap-OC2Y-Atmp] reads 4.2 µM; that for `O=C(C=Cc1c(F)c(F)c(F)c(F)c1F)NC(Cc1c(F)c(F)c(F)c(F)c1F)C(=O)N1CCN(Cc2c(F)c(F)c(F)c(F)c2F)CC1` (stereo not shown) [Analog M-1730, F5c-F5F-Pipz(F5b)], 21 µM.
Still for that read-out and setting: the result for `O=C(C=Cc1c(F)c(F)c(F)c(F)c1F)NC(C(=O)N1CCN(Cc2c(F)c(F)c(F)c(F)c2F)CC1)C1Cc2ccccc2C1` (stereo not shown) [Analog M-1690, F5c-Igl-Pipz(F5b)] reads 25 µM; that for `Cc1ccc(CSC(C)(C)C(NC(=O)C(C2CCCCC2)C2CCCCC2)C(=O)NC2CC(C)(C)NC(C)(C)C2)cc1` (stereo not shown) [Analog M-1514, Dca-Pen(Mbzl)-Atmp], 7.3 µM.
For `O=C(N[C@H]1CN2CCC1CC2)C(Cc1ccc(OCc2c(Cl)cccc2Cl)cc1)NC(=O)C(c1ccccc1)C1CCCCC1` (single isomer, unassigned) [M-1548 #1], the IC50 stood at 4 µM.
On the same count and under the same terms, the same measure for `CC1(C)CC(NC(=O)C(Cc2ccc(OCc3c(Cl)cccc3Cl)cc2)NC(=O)C=Cc2ccccc2Cl)CC(C)(C)N1` (stereo not shown) [Analog M-1652, 2Ccn-OC2Y-Atmp]: 4.1 µM; for `CN1CCN(CCCNC(=O)[C@H](Cc2ccc(OCc3c(Cl)cccc3Cl)cc2)NC(=O)C2CCn3c(C(=O)c4ccccc4)ccc32)CC1` (stereo partly shown) [Analog M-1674, Ktlc-OC2Y-Amp]: 3.2 µM; for `CC1(C)CC(NC(=O)C(Cc2ccc(OCc3c(Cl)cccc3Cl)cc2)NC(=O)CC=Cc2ccccc2)CC(C)(C)N1` (stereo not shown) [Analog M-1780, Saa-OC2Y-Atmp]: 1.8 µM.

The experiment is the same for the next values; noted with them: ED50 for killing of SCLC strain SHP-77 in vitro, 4 days, 0 = no detectable activity, read-out: SHP-77 In vitro IC50.
Regarding `O=C(C=Cc1c(F)c(F)c(F)c(F)c1F)NC1(C(=O)N(Cc2ccccn2)Cc2ccccn2)Cc2ccccc2C1` [Analog M-1218, F5c-Aic-Dpic], the IC50 amounted to 14 µM.
The same measure, in the same setting: the same measure for `O=C(C=Cc1c(F)c(F)c(F)c(F)c1F)NC(Cc1ccc(F)cc1)C(=O)N1CCN(c2ccc(Cl)cc2)CC1` (stereo not shown) [Analog M-1208, F5c-PFF-Cpp]: 30 µM; for `O=C(C=Cc1c(F)c(F)c(F)c(F)c1F)NC(Cc1c(F)c(F)c(F)c(F)c1F)C(=O)NC1CCN(Cc2ccccc2)CC1` (stereo not shown) [Analog M-1182, F5c-F5F-Abzp]: 19.5 µM.
The same measure, in the same setting: the same measure for `O=C(C=Cc1c(F)c(F)c(F)c(F)c1F)NC(Cc1ccc(F)cc1)C(=O)N1CCN(c2ncccn2)CC1` (stereo not shown) [Analog M-1162, F5c-PFF-Pmpz]: 15 µM.
Same read-out and setting: the result for `O=C(C=Cc1c(F)c(F)c(F)c(F)c1F)NC(Cc1ccc(F)cc1)C(=O)N1CCN(C(c2ccccc2)c2ccc(Cl)cc2)CC1` (stereo not shown) [Analog M-1202, F5c-PFF-Cbp] reads 30 µM; that for `CC1(C)CC(NC(=O)C(Cc2ccc(F)cc2)NC(=O)C=Cc2ccoc2)CC(C)(C)N1` (stereo not shown) [Analog M-1152, 3-Fa-PFF-Atmp], over 60 µM.

For the origin of these results see US7858349B2, “Anti-cancer compounds” (The Regents of the University of Colorado, priority 1999, dated 2010).
